Measurements as given in PMC7531601, “Exploiting Lactoferricin (17–30) as a Potential Antimicrobial and Antibiofilm Candidate Against Multi-Drug-Resistant Enteroaggregative Escherichia coli” (Frontiers in Microbiology, 2020).
Like-named read-outs stand apart in the source and are kept apart here. Ends that are not written are not given here.

What was measured:
sheep erythrocytes = sheep erythrocytes (10%)
Procedure: (§1) Initially, characterization of Lfcin (17–30) was performed by determining its minimum inhibitory concentration (MIC), minimum bactericidal concentration (MBC), in vitro stability assays (high-end temperatures, the physiological concentration of cationic salts and proteases), and in vitro safety assays (sheep erythrocyte hemolysis and secondary cell line cytotoxicity) (Supplementary Files S1–S3). The membrane permeabilization effect of Lfcin (17–30) was assessed by flow cytometry, whereas outer and inner membrane permeability of MDR-EAEC strains treated with 1 × and 2 × MIC levels of Lfcin (17–30) was carried out based on the nitrocefin activity as well as the release of cytoplasmic β-galactosidase activity, respectively (Supplementary File S4). Further, Lfcin (17–30) was evaluated for its antibacterial activity against beneficial lactobacilli (L. acidophilus MTCC 10307 and L. rhamnosus MTCC 1408) (Supplementary File S5).
(§2) To determine the safety of Lfcin (17-30) on host cells, a haemolytic assay using sheep erythrocytes as well as cytotoxicity assay using secondary cell lines were performed with 1X, 2X and 4X MICs of Lfcin (17-30), respectively. In brief, haemolytic assay was performed, wherein the haemolytic activity of Lfcin (17-30) was tested by determining the extent of haemoglobin release from sheep erythrocytes (10%). Further, the safety aspect of Lfcin (17-30) was evaluated on secondary cell line viz., human epithelioma cell line (HEp-2), and murine macrophage cell line (RAW 264.7) by performing MTT [3-(4,5-dimethylthiazole-2-yl)-2,5-diphenyl tetrazolium bromide] assay.

HEp-2 cells = conditions: MTT
Procedure: as §1, §2

RAW 264.7 cells = conditions: MTT
Procedure: as §1, §2

MDR-EAEC strains = MDR-EAEC strains (n = 3)
Procedure: as §1

G. mellonella larvae = test: LDH cytotoxicity assay of larval haemolymph; format: in vivo, Galleria mellonella
Procedure: (§3) Galleria mellonella larvae were grouped 40 per group for in vivo antimicrobial testing of Lfcin (17–30) as follows: group I (MDR-EAEC infection control), groups II and III (infection + treatment groups), group IV (PBS control), and group V [Lfcin(17–30) control]. Optimized LD50 dose of MDR-EAEC (a cocktail of three strains) was administered to larvae of groups I to III, while MIC dose of Lfcin (17–30) and Meropenem was administered 3 h post-infection (pi) in groups II and III, respectively. Larval group IV was injected with sterile PBS, whereas MIC dose of Lfcin (17–30) was administered in group V.
The larvae were then observed for their survival rate, melanization (Supplementary Information S7), MDR-EAEC counts (Supplementary Information S8), hemocyte density (Supplementary Information S9) ([Wand et al., 2013]), lactate dehydrogenase (LDH) cytotoxicity assay (Supplementary Information S10) ([Gibreel and Upton, 2013]), and histopathology (Supplementary Information S11) ([Perdoni et al., 2014]), at an interval of 6 h till 24 h, followed by 24-h interval up to 120 h pi.
G. mellonella (n=3 larvae per group) were analysed for the production of LDH, as a marker of cell damage, at an interval of 6 h pi for 24 h, followed by 24 h interval till 96 h pi using QuantiChrom LDH cytotoxicity assay kit, according to the manufacturer’s instructions. The positive and negative controls used in this study were […]. The absorbance was read using ELISA plate reader at 500 nm; the haemolymph from untreated larvae served as background control and the cytotoxicity was calculated as, Cytotoxicity (%) = (ODSample - ODControl)/ (ODTotal Lysis - ODControl) x 100, wherein, sample is the control absorbance of treated cell; control is the experimental absorbance of the untreated cell control and total lysis is the absorbance of Triton X-100 treated cells.

[1] = test system: G. mellonella larvae infected with MDR-EAEC (a cocktail of three strains); test: G. mellonella larval survival; format: in vivo, Galleria mellonella; conditions: uninfected larvae, MIC dose, up to 120 h pi
Procedure: The final instar of G. mellonella larvae was utilized for performing the in vivo assays ([Morgan et al., 2014]). The larvae (ca. 200–250 mg) inoculated with aliquots of MDR-EAEC suspensions (10 μl) by injection using Hamilton syringe (26 gauge) via the last right pro-leg were incubated at 37°C and the observations were noted. The larvae kept in a sterile environment were provided with ad lib food during the experiment.
The determined LD50 dose for each MDR-EAEC strain in the larvae was validated and employed further in the in vivo experiments to evaluate the antibacterial efficacy of Lfcin (17–30).
as §3, with “V. […]” for “V.”

[2] = test system: L. acidophilus MTCC 10307; conditions: 1X MIC, MRS broth, 37°C, 48 h, absorbance 600 nm and plating
Procedure: as §1
(§4) Besides, the safety aspect of Lfcin (17-30) against beneficial gut lactobacilli was also investigated. […] After incubation at 37 °C for 48 h, the antibacterial effect of AMP on commensal lactobacilli was measured by observing the absorbance at 600 nm (Thermo Scientific Multiskan GO) as well as drawing two 10 µl samples from each well and plating them onto MRS agar plates. […]

L. rhamnosus MTCC 1408 = conditions: 1X MIC, MRS broth, 37°C, 48 h, absorbance 600 nm and plating
Procedure: as §1, §4

FKCRRWQWRMKKLG [Lfcin (17–30)] was tested, and the “Haemolysis (%)” value (sheep erythrocytes; MIC (1X)) was “non-hemolytic”, the “Haemolysis (%)” value (sheep erythrocytes; MIC (2X)) was “non-hemolytic” and the “cytotoxicity / morphological changes” value (HEp-2 cells; HEp-2, 1× and 2× MIC) was “remarkable morphological changes were not evident”. For the same sequence, the cytotoxicity (HEp-2 cells; HEp-2, 4× MIC) was “moderate to higher cytotoxicity”, the “cytotoxicity / morphological changes” value (RAW 264.7 cells; RAW 264.7, 1× and 2× MIC) was “remarkable morphological changes were not evident” and the cytotoxicity (RAW 264.7 cells; RAW 264.7, 4× MIC) was “moderate to higher cytotoxicity”. The MBC (MDR-EAEC strains; at least 99.9% killing after 24 h) was 32 µM, the MIC (MDR-EAEC strains; micro-broth dilution) was 32 µM and the LDH cytotoxicity (G. mellonella larvae; infected larvae treated 3 h pi) was “cytotoxicity remained increased up to 48 h pi”. For the same sequence, the LDH cytotoxicity (G. mellonella larvae; uninoculated larvae treated with MIC dose) was “significantly increased cytotoxicity was observed at 6 to 18 h pi”, the survival rate [1] was 100% and the “antimicrobial effect on beneficial lactobacilli” value [2] was “non-significant”. The “antimicrobial effect on beneficial lactobacilli” value (L. rhamnosus MTCC 1408) was “non-significant”.
